Data: PubChem BioAssay (NCI)
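GI50: concentration for 50% inhibition of growth. TGI: concentration producing complete growth inhibition.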

Tests used:
Experiment in all cases: NCI anticancer screen, dose series, 384-well format
NCI-H322M lung = tested on: NCI-H322M lung
BT-549 breast = tested on: BT-549 breast
NCI-H522 lung = tested on: NCI-H522 lung
HOP-62 NSCLC = tested on: HOP-62 NSCLC
TK-10 renal = tested on: TK-10 renal
EKVX NSCLC = tested on: EKVX NSCLC
786-0 renal = tested on: 786-0 renal
KM12 colon = tested on: KM12 colon
SNB-75 CNS = tested on: SNB-75 CNS
SW-620 colon = tested on: SW-620 colon
MCF7 breast = tested on: MCF7 breast
ACHN renal = tested on: ACHN renal
OVCAR-3 ovarian = tested on: OVCAR-3 ovarian
SN12C renal = tested on: SN12C renal
U251 glioblastoma = tested on: U251 glioblastoma
LOX IMVI melanoma = tested on: LOX IMVI melanoma
PC-3 prostate = tested on: PC-3 prostate
A549 NSCLC = tested on: A549 NSCLC
MALME-3M melanoma = tested on: MALME-3M melanoma
UACC-257 melanoma = tested on: UACC-257 melanoma
K-562 leukemia = tested on: K-562 leukemia
SK-MEL-2 melanoma = tested on: SK-MEL-2 melanoma
M14 melanoma = tested on: M14 melanoma
CCRF-CEM leukemia = tested on: CCRF-CEM leukemia
OVCAR-5 ovarian = tested on: OVCAR-5 ovarian
MOLT-4 leukemia = tested on: MOLT-4 leukemia
OVCAR-8 ovarian = tested on: OVCAR-8 ovarian
HL-60(TB) leukemia = tested on: HL-60(TB) leukemia
A498 renal = tested on: A498 renal
MDA-MB-435 melanoma = tested on: MDA-MB-435 melanoma
NCI-H460 NSCLC = tested on: NCI-H460 NSCLC
RXF 393 renal = tested on: RXF 393 renal
RPMI-8226 leukemia = tested on: RPMI-8226 leukemia
SK-OV-3 ovarian = tested on: SK-OV-3 ovarian
T-47D breast = tested on: T-47D breast
SNB-19 CNS = tested on: SNB-19 CNS
OVCAR-4 ovarian = tested on: OVCAR-4 ovarian
SF-539 CNS = tested on: SF-539 CNS
SF-295 CNS = tested on: SF-295 CNS
HCT-15 colon = tested on: HCT-15 colon
UO-31 renal = tested on: UO-31 renal
IGROV1 ovarian = tested on: IGROV1 ovarian
MDA-MB-468 breast = tested on: MDA-MB-468 breast
SK-MEL-28 melanoma = tested on: SK-MEL-28 melanoma
NCI-H226 lung = tested on: NCI-H226 lung
MDA-MB-231 breast = tested on: MDA-MB-231 breast
HT29 colon = tested on: HT29 colon
UACC-62 melanoma = tested on: UACC-62 melanoma
CAKI-1 renal = tested on: CAKI-1 renal
SR leukemia = tested on: SR leukemia
SF-268 CNS = tested on: SF-268 CNS
HS 578T breast = tested on: HS 578T breast
DU-145 prostate = tested on: DU-145 prostate
COLO 205 colon = tested on: COLO 205 colon
HCT-116 colon = tested on: HCT-116 colon
HOP-92 NSCLC = tested on: HOP-92 NSCLC

CC1(C)CCC(CN2CCN(c3ccc(C(=O)NS(=O)(=O)c4ccc(NCC5CCOCC5)c([N+](=O)[O-])c4)c(Oc4cnc5[nH]ccc5c4)c3)CC2)=C(c2ccc(Cl)cc2)C1
GI50 (NCI-H322M lung): 4.57 µM | TGI (NCI-H322M lung): 11.5 µM | GI50 (BT-549 breast): 3.79 µM | TGI (BT-549 breast): 9.18 µM | GI50 (NCI-H522 lung): 14.9 µM | TGI (NCI-H522 lung): 20.2 µM | GI50 (HOP-62 NSCLC): 6.2 µM | TGI (HOP-62 NSCLC): 9.88 µM | GI50 (TK-10 renal): 6.84 µM | TGI (TK-10 renal): 12.4 µM | GI50 (EKVX NSCLC): 6.98 µM | TGI (EKVX NSCLC): 14.3 µM | GI50 ([…]-0 renal): 3.15 µM | TGI (786-0 renal): 9.12 µM | GI50 (KM12 colon): 5.75 µM | TGI (KM12 colon): 8.84 µM | GI50 (SNB-75 CNS): 4.58 µM | TGI (SNB-75 CNS): 9.27 µM | GI50 (SW-620 colon): 6.09 µM | TGI (SW-620 colon): 7.57 µM | GI50 (MCF7 breast): 4.38 µM | TGI (MCF7 breast): 8.24 µM | GI50 (ACHN renal): 4.22 µM | TGI (ACHN renal): 11.6 µM | GI50 (OVCAR-3 ovarian): 4.55 µM | TGI (OVCAR-3 ovarian): 7.36 µM | GI50 (SN12C renal): 4.52 µM | TGI (SN12C renal): 14.9 µM | GI50 (U251 glioblastoma): 5.89 µM | TGI (U251 glioblastoma): 9.82 µM | GI50 (LOX IMVI melanoma): 9.62 µM | GI50 (PC-3 prostate): 4.61 µM | TGI (PC-3 prostate): 12.2 µM | GI50 (A549 NSCLC): 4.97 µM | TGI (A549 NSCLC): 11.2 µM | GI50 (MALME-3M melanoma): 2.81 µM | TGI (MALME-3M melanoma): 6.5 µM | GI50 (UACC-257 melanoma): 5.19 µM | TGI (UACC-257 melanoma): 7 µM | GI50 (K-562 leukemia): 2.13 µM | TGI (K-562 leukemia): 4.28 µM | GI50 (SK-MEL-2 melanoma): 1.93 µM | TGI (SK-MEL-2 melanoma): 3.43 µM | GI50 (M14 melanoma): 3.51 µM | TGI (M14 melanoma): 9.14 µM | GI50 (CCRF-CEM leukemia): 7.94 µM | GI50 (OVCAR-5 ovarian): 3.53 µM | TGI (OVCAR-5 ovarian): 6.62 µM | GI50 (MOLT-4 leukemia): 1.26 µM | TGI (MOLT-4 leukemia): 2.62 µM | GI50 (OVCAR-8 ovarian): 4.44 µM | TGI (OVCAR-8 ovarian): 7.43 µM | GI50 (HL-60(TB) leukemia): 0.105 µM | TGI (HL-60(TB) leukemia): 0.802 µM | GI50 (A498 renal): 3.64 µM | TGI (A498 renal): 8.99 µM | GI50 (MDA-MB-435 melanoma): 3.43 µM | TGI (MDA-MB-435 melanoma): 16.6 µM | GI50 (NCI-H460 NSCLC): 4.46 µM | TGI (NCI-H460 NSCLC): 7.85 µM | GI50 (RXF 393 renal): 3.41 µM | TGI (RXF 393 renal): 5.69 µM | GI50 (RPMI-8226 leukemia): 1.75 µM | TGI (RPMI-8226 leukemia): 3.99 µM | GI50 (SK-OV-3 ovarian): 15.5 µM | TGI (SK-OV-3 ovarian): 21.1 µM | GI50 (T-47D breast): 5.12 µM | TGI (T-47D breast): 8.12 µM | GI50 (SNB-19 CNS): 5.63 µM | TGI (SNB-19 CNS): 11 µM | GI50 (OVCAR-4 ovarian): 2.98 µM | TGI (OVCAR-4 ovarian): 6.29 µM | GI50 (SF-539 CNS): 3.6 µM | TGI (SF-539 CNS): 7.94 µM | GI50 (SF-295 CNS): 3.98 µM | TGI (SF-295 CNS): 7.88 µM | GI50 (HCT-15 colon): 5.11 µM | TGI (HCT-15 colon): 9.19 µM | GI50 (UO-31 renal): 3.63 µM | TGI (UO-31 renal): 8 µM | GI50 (IGROV1 ovarian): 2.81 µM | TGI (IGROV1 ovarian): 7.24 µM | GI50 (MDA-MB-468 breast): 3.67 µM | TGI (MDA-MB-468 breast): 7.05 µM | GI50 (SK-MEL-28 melanoma): 4.05 µM | TGI (SK-MEL-28 melanoma): 9.58 µM | GI50 (NCI-H226 lung): 7.08 µM | TGI (NCI-H226 lung): 10.6 µM | GI50 (MDA-MB-231 breast): 2.49 µM | TGI (MDA-MB-231 breast): 6.01 µM | GI50 (HT29 colon): 5.16 µM | TGI (HT29 colon): 7.3 µM | GI50 (UACC-62 melanoma): 4.95 µM | TGI (UACC-62 melanoma): 7.13 µM | GI50 (CAKI-1 renal): 5.47 µM | TGI (CAKI-1 renal): 11.7 µM | GI50 (SR leukemia): 1.38 µM | TGI (SR leukemia): 2.68 µM | GI50 (SF-268 CNS): 3.84 µM | TGI (SF-268 CNS): 8.19 µM | GI50 (HS 578T breast): 3.14 µM | TGI (HS 578T breast): 7.93 µM | GI50 (DU-145 prostate): 5.66 µM | TGI (DU-145 prostate): 18.5 µM | GI50 (COLO 205 colon): 3.81 µM | TGI (COLO 205 colon): 6.68 µM | GI50 (HCT-116 colon): 4.46 µM | TGI (HCT-116 colon): 11.8 µM | GI50 (HOP-92 NSCLC): 1.83 µM | TGI (HOP-92 NSCLC): 3.73 µM
